Results published in paper PMC12410356 (International Journal for Parasitology: Drugs and Drug …, 2025).

How the values were obtained:
[1] = test system: E. multilocularis metacestode vesicles; assay: Phosphoglucose isomerase (PGI) release assay (damage-marker release) on metacestode vesicles; type: cell-based, Echinococcus multilocularis; conditions: 10 μM; for PGI d5 (relative PGI release): 5 days; for PGI d12 (relative PGI release): 12 days
[2] = test system: E. multilocularis metacestode vesicles; assay: Metacestode vesicle viability assay (ATP, CellTiter-Glo); type: cell-based, Echinococcus multilocularis
Procedure: Viability was assessed after 12 days using the same metacestode vesicles as for the PGI release assay. Triton X-100 was added to each well to a final concentration of 0.1 %. Subsequently the metacestode vesicles were broken mechanically and 50 μL of the supernatant was mixed with 50 μL of CellTiter-Glo® buffer (Promega, Dübendorf, Switzerland). Measurements were performed on a HIDEX Sense microplate reader.

[3] = overview screen, singlets, relative to 0.1 % Triton X-100, DMSO subtracted
[4] = overview screen, 10 μM, singlets, 12 days, relative to DMSO control
[5] = confirmation screen, triplicates, mean
[6] = confirmation screen, 10 μM, triplicates, mean, 12 days

SMILES | PGI d5 (relative PGI release) [1, 3] | PGI d12 (relative PGI release) [1, 3] | Viability d12 (relative viability) [2, 4] | Viability d12 (relative viability) ([2]; 10 µM) | PGI d5 (relative PGI release) [1, 5] | PGI d12 (relative PGI release) [1, 5] | Viability d12 (relative viability) [2, 6]
CCc1ccccc1OCCN1CCCCCC1 [MMV1633962] | 1.217% | -18.8642% | 159.976% |  |  |  | 
O=C(O)/C=C/C=C/c1cccc(Oc2cc(Cl)cc(Cl)c2)c1 [MMV1633963] | 0.04404% | 0.4233% | 136.634% |  |  |  | 
O=C(NCCN1CCCCC1)c1cccc(C(F)(F)F)c1 [MMV1633964] | 0.4856% | -18.3006% | 94.8358% |  |  |  | 
COc1c(NC(=O)[C@H]2CC[C@@H](COc3ccc([N+](=O)[O-])cc3)CC2)c(F)cc2c(=O)c(C(=O)O)cn(C3CC3)c12 [MMV1633965] | 0.7075% | -11.0947% | 49.6807% |  |  |  | 
Nc1nnnn1CCOc1c2[nH]c3ccc(Cl)cc3c2cc2c1[nH]c1ccc(Cl)cc12 [MMV1633966] | 3.53% | 16.3673% | 104.455% |  |  |  | 
CCOC(=O)Nc1cc(NC(C)CC(C)CN(CC)CC)c2nc(-c3ccccc3)c(-c3ccccc3)nc2n1 (stereo not drawn) [MMV1633967] | -2.798% | -20.9085% | 104.121% |  |  |  | 
Nc1nc(-c2ccccc2)nc2[nH]nc(Nc3ccc(C(F)(F)F)cc3)c12 [MMV1633968] | 0.2239% | 0.02121% | 133.404% |  |  |  | 
O=C(O)c1ccc(-c2ccc(O[C@H]3O[C@H](CO)[C@@H](O)[C@H](O)[C@@H]3O)cc2)cc1 [MMV1633970] | 0.1129% | -1.296% | 109.047% |  |  |  | 
CCOc1noc2cc(OCCC3CCN(c4ccc(C)nn4)CC3)ccc12 [MMV1634071] | 0.1516% | -20.1339% | 88.166% |  |  |  | 
CCC(C)(C)c1ccc(CC(C)CN2C[C@@H](C)O[C@@H](C)C2)cc1.Cl (stereo partly drawn) [MMV1634358] | 0.7921% | -20.4097% | 23.2957% |  |  |  | 
CN(C/C=C/C#CC(C)(C)C)Cc1cccc2ccccc12 [MMV1634359] | -1.48% | -21.017% | 186.198% |  |  |  | 
O=C1c2cccc3cccc(c23)C(=O)N1CC1CO1 (stereo not drawn) [MMV1634360] | -2.544% | 17.7299% | 25.8841% |  |  |  | 
N[C@H]1CCC[C@H]1C(=O)O [MMV1634361] | 0.2611% | 0.2526% | 78.6856% |  |  |  | 
C[C@@H](c1nc(-c2ccc(C#N)cc2)cs1)[C@](O)(Cn1cncn1)c1ccc(F)cc1F [MMV1634362] | -1.682% | -23.6483% |  | 103.703% |  |  | 
OB1OCc2cc(Cl)ccc21 [MMV1634363] | -0.4278% | -12.2339% | 101.699% |  |  |  | 
CCc1cc(Nc2cc(=O)n(CCN3CCN(C(=O)c4ccccc4)CC3)c(=O)[nH]2)ccc1C [MMV1634383] | 0.8629% | 52.997% | 104.622% |  |  |  | 
CCN(CC)S(=O)(=O)c1ccc(Cl)c(C(=O)Nc2sc3c(c2C#N)CCCC3)c1 [MMV1634384] | 0.5897% | 3.142% | 106.793% |  |  |  | 
Nc1ccc(-c2nc3cc(C(F)(F)F)ccc3n2C23CC4CC(CC(C4)C2)C3)cc1 [MMV1634385] | 1.378% | 1.206% | 100.869% |  |  |  | 
O[C@@](Cn1cnnn1)(c1ccc(F)cc1F)C(F)(F)c1ccc(-c2ccc(OCC(F)(F)F)cc2)cn1 [MMV1634386] | -2.798% | -27.2627% | 107.711% |  |  |  | 
CC(C)(C)c1ccc(OCCn2nc(C(=O)O)c3ccccc3c2=O)cc1 [MMV1634387] | -1.414% | -12.4336% | 144.45% |  |  |  | 
CC(C)N(c1cc(-c2ccccc2)sc1C(=O)O)C(=O)[C@H]1CC[C@H](C)CC1 [MMV1634388] | 1.026% | 40.2559% | 13.9085% |  | 0.59% | 0.29% | 128.08%

SMILES | PGI d5 (relative PGI release) [1, 3] | PGI d12 (relative PGI release) [1, 3] | Viability d12 (relative viability) [2, 4] | Viability d12 (relative viability) ([2]; 10 µM) | PGI d5 (relative PGI release) [1, 5] | PGI d12 (relative PGI release) [1, 5] | Viability d12 (relative viability) [2, 6]
CCNC(=O)Nc1cc2c(-c3ccnc(C)c3)ccc(CNC(=O)OC)c2cn1 [MMV1634390] | 1.116% | -26.1278% | 29.4745% |  |  |  | 
Cn1cc(NC(=O)c2cc(NC(=O)c3ccc(/C=C/c4cnc5ccccc5c4)cc3)cn2C)cc1C(=O)NCCN1CCOCC1 [MMV1634391] | -0.2305% | 21.1965% | 70.2948% |  |  |  | 
CCCCc1ccc(-c2nc(C)c(C(=O)OC)s2)cc1 [MMV1634392] | 0.3728% | 0.05977% | 152.475% |  |  |  | 
CC(C)(C)c1ccc(C(Cn2cccc(C(F)(F)F)c2=O)NC2Cc3ccccc3C2)cc1 (stereo not drawn) [MMV1634393] | -0.3467% | 0.3021% | 102.314% |  |  |  | 
Cc1ccc(N2CCC(CCOc3ccc(S(C)(=O)=O)cc3)CC2)nn1 [MMV1634394] | 0.369% | -19.1494% | 249.705% |  |  |  | 
CCc1c(O)nc2ccc(F)cc2c1OCC1CCC1 [MMV1634395] | -0.4952% | -17.3568% | 119.991% |  |  |  | 
O=C(c1nc2c(C(F)(F)F)cc(C3CC3)cn2c1Cl)N1CCN([C@H]2CC[C@H](O)CC2)C(=O)C1 [MMV1634396] | 0.0006202% | 0.1204% | 113.417% |  |  |  | 
COc1ccc(CNC(=O)C2CCN(C(C)c3cccc4ccccc34)CC2)cc1 (stereo not drawn) [MMV1634397] | 1.669% | -0.9153% | 68.3168% |  |  |  | 
CCOc1ccc(/C=N/NC(=O)C2CC2c2ccc(C(C)(C)C)cc2)cc1OCC (stereo not drawn) [MMV1634398] | 0.06885% | 0.3627% | 324.092% |  |  |  | 
Cc1nc2ccc(Oc3ccccc3)cc2c2c1CCN2CCc1ccccc1 [MMV1634399] | 25.5463% | 44.1623% | 23.583% |  | 0.85% | 15.15% | 116.13%
Cc1ccc(C)c(OCCCCCCN2C[C@H](O)[C@@H](O)[C@H](O)[C@H]2CO)c1 [MMV1634401] | 8.592% | 62.8936% | 26.5643% |  | 1.51% | 2.13% | 146.24%
NC(N)=NCCCCC(=O)Nc1cc(C(F)(F)F)cc(NC(=O)c2cc(C(=O)Nc3cc(C(F)(F)F)cc(NC(=O)CCCCN=C(N)N)c3O[C@@H]3CCNC3)ncn2)c1O[C@@H]1CCNC1 [MMV1634402] | -1.176% | 3.242% | 96.1157% |  |  |  | 
CS(=O)(=O)c1ccc(Oc2ccc(Cl)cc2)cc1 [MMV1634404] | -0.3308% | -18.6197% | 57.7676% |  |  |  | 
O=C(/C(=C/c1ccc(Cl)cc1Cl)n1ccnc1)c1ccc(Cl)cc1 [MMV1634491] | 24.947% | 25.566% | 14.6955% |  | 0.16% | 5.15% | 83.69%
Clc1cc(Cl)c2c(c1)CCc1ccccc1C2n1ccnc1 (stereo not drawn) [MMV1634492] | -1.087% | -25.0724% | 206.655% |  |  |  | 
Cc1ccc(Oc2ccccc2-c2csc(N=C3NCCCN3)n2)c(C)c1 [MMV1634493] | 4.111% | 7.6311% | 36.7387% |  |  |  | 
CNCC(=O)OCc1cccnc1N(C)C(=O)OC(C)[n+]1cnn(C[C@](O)(c2cc(F)ccc2F)[C@@H](C)c2nc(-c3ccc(C#N)cc3)cs2)c1 (stereo partly drawn) [MMV1634494] | -2.972% | -24.8266% | 42.7505% |  |  |  | 
CCc1cc(CCCOc2c(C)cc(-c3noc(C(F)(F)F)n3)cc2C)on1 [MMV1634556] | 0.6182% | -18.063% | 121.169% |  |  |  | 
COc1cc(C2C3=C(CC(C)(C)CC3=O)Nc3ccccc3N2C(C)=O)ccc1OCc1ccccc1 (stereo not drawn) [MMV1634557] | -2.659% | -23.764% | 141.611% |  |  |  | 
O=[N+]([O-])/C(Br)=C/c1ccc(Br)o1 [MMV1645051] | 1.139% | -20.9736% | 16.4489% |  |  |  | 
